Molecular target: T1, Phospholipase A2 derived from bovine pancreas (PLA2) (Bos taurus, UniProt P00593)
T1 construct: gene PLA2G1B; commercial native enzyme from bovine pancreas (Sigma)
Assay: fluorescence enhancement (BODIPY FL release, […] nm)
Assay type: biochemical
Conditions: 10 mM Tris-HCl pH 8.0, 100 mM NaCl, 10 mM CaCl2, 45 nM substrate, 6 min; labelled compound; enzyme used as control

T1 sequence (P00593 23-145): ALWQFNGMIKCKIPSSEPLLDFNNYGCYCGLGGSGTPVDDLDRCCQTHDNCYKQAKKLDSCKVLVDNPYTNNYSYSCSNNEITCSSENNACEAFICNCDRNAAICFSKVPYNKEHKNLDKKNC

`CC1=CC(C)=[N+]2C1=Cc1ccc(CCCCCCCCCCC(=O)OC[C@H](COP(=O)([O-])OCC[N+](C)(C)C)OC(=O)CCCCCCCCCCc3ccc4n3[B-](F)(F)[N+]3=C(C)C=C(C)C3=C4)n1[B-]2(F)F` [bis-BODIPY FL C11-PC] was tested, and the “fluorescence enhancement (BODIPY FL release, 485/530 nm)” value was “S. marcescens PhlA and bovine pancreatic PLA2 released fluorescent fatty acids from bis-BODIPY FLC11-PC”.

— publication PMC2800117, “The hemolytic and cytolytic activities of Serratia marcescens phospholipase A (PhlA) depend on lysophospholipid production by PhlA” (BMC Microbiology, 2009)
